Tested on: platelet aggregates
Assay: Platelet function test: inflow pressure of blood through collagen-coated microchip with plasma-treated channel dividing section (Test Example 3)
Type: ex vivo
Conditions: blood collected before and after dosing of 100 mg of aspirin, hirudin 25 μg/ml anticoagulation, flow rate 27 μl/minute or 9 μl/minute
Method: Blood was collected from a sample before and after dosing of 100 mg of aspirin, and each obtained blood was subjected to anticoagulation treatment with hirudin (25 μg/ml). The anticoagulated blood was subjected to flow through the channel of a microchip having a plasma-treated channel dividing section. More particularly, the reservoir 109 was filled with anticoagulated blood (before and after dosing of 100 mg of aspirin), and the pump 111 was filled with mineral oil. The pump 111 was connected to the reservoir 109, and a tip of the reservoir 109 was connected to the inlet 106 of the microchip 1. By injecting mineral oil from the pump 111 at a flow rate of 27 μl/minute or 9 μl/minute into the reservoir to overlay the mineral oil on the blood, the blood in the reservoir was pushed into the microchip 1 at the same flow rate, while the inflow pressure of the mineral oil (that is, the inflow pressure of the blood) was measured with a pressure sensor which is not shown.
In the case where the microchip having a plasma-untreated channel dividing section was used, the pressure increase was insufficient and the effect of aspirin could be therefore hardly identified. […]
Thus, the plasma irradiation increased the pressure to a higher level, and the stability of platelet aggregates under high-flow-rate conditions could be analyzed more accurately.

SMILES: CC(=O)Oc1ccccc1C(=O)O [aspirin]
- effect of aspirin on platelet aggregation (inflow pressure of blood): decrease the stability of formed platelet aggregates rather than an effect to decrease the formation rate of platelet aggregates

From patent US8796031B2, “Microchip for platelet examination and platelet examination device using same” (Fujimori Kogyo Co., Ltd., priority 2010, dated 2014)
